Results: US20100204129A1, “USE OF A PEPTIDE AS A THERAPEUTIC AGENT” (priority 2008, published 2010)
Non-standard residues stand in square brackets, D forms with d. Residues, ends and D or L forms follow the SMILES beside them.

Assays:
[1] = system: RAW 264.7 cells; experiment: Phagocytosis assay (Fluorescein-labeled Escherichia coli, flow cytometry); assay type: cell-based, mouse; settings: peptide 10 micrograms per ml, 30 min preincubation, 60 min ingestion
Procedure: RAW 264.7 (Mouse leukaemic monocyte macrophage cell line) cells were obtained from ATCC and grown in RPMI 1640 medium containing 10% FBS. Cells were incubated in 12×75 mm tubes at 37° C. with test peptide—10 micrograms per ml—for 30 min prior to adding Fluorescein-labeled Escherichia coli bacteria as the agent to be ingested. After the cells were incubated for additional 60 min at 37° C. and allowed to ingest the Fluorescein-labeled Escherichia coli bacteria, cells were fixed with 1% paraformaldehyde. The samples were then analyzed by flow cytometry to determine the amount of phagocytosis as a function of brightness (the greater the phagocytic activity, the more fluorescence in the macrophage population). Data are reported as % positive and the mean fluorescence intensity (MFI) of positively stained cells.

[2] = system: A549 cells; experiment: Apoptosis prevention assay (C2 ceramide, Annexin-5); assay type: cell-based, human; settings: A549 cells pretreated 30 min with peptide 10 micrograms per ml, then C2 ceramide
Excerpt: Human A549 cells (carcinomic human alveolar basal epithelial cells) were utilized in the experiments employing the Annexin-5 apoptosis assay. Annexin-5 is a member of a highly conserved protein family that binds acidic phospholipids in a calcium-dependent manner. […] Phosphatidylserine is translocated from the inner side of the plasma membrane to the outer layer when cells undergo death by apoptosis or cell necrosis and serves as a signal by which cell destined for death are recognized by phagocytes. A549 cells were pretreated for 30 min with test peptide—10 micrograms per ml—followed by the exposure to C2 ceramide. Ceramide mediates cell apoptosis through the activation of the mitogen activating protein kinase (MAPK) and the stress activated kinase (JNK/SAPK). C2 ceramide is a synthetic, membrane soluble analog of ceramide.

[3] = in vitro; settings: human
[4] = system: TNF alpha; experiment: TNF alpha production assay (LPS-stimulated macrophages, ELISA); assay type: cell-based, human; settings: macrophages from PBMC, peptide 10 micrograms per ml, lipopolysaccharide 200 ng/ml, overnight
Procedure: Human Peripheral Blood Mononuclear Cells (PBMC) were obtained from normal human donors. The macrophages were prepared by adherence of PBMC to the plastic wells of the plates. After 8 days in culture in the presence of recombinant human macrophage-colony stimulating factor at 2 ng/ml, differentiated macrophages were preincubated with test peptide—10 micrograms per ml—for 30 min, followed by in-well stimulation by the addition of lipopolysaccharide at a final concentration of 200 ng/ml. Not stimulated macrophages served as negative background control.
After overnight incubation, supernatants from the control and LPS-stimulated cultures were harvested and assayed for TNF alpha production employing a TNF alpha specific ELISA.

[5] = system: Human Peripheral Blood Mononuclear Cells (PBMC); experiment: B cell proliferation assay (SAC plus Interleukin-2, 3H-thymidine); assay type: cell-based; settings: peptide 10 micrograms per ml, 3H-thymidine incorporation
Procedure: Human Peripheral Blood Mononuclear Cells (PBMC) were obtained from normal human donors. The B cell proliferation was induced by stimulation of the cells with the B cell mitogen Staphylococcus aureus Cowans I (SAC) plus Interleukin-2, either in the absence (positive proliferation control), or in the presence of test peptide—10 micrograms per ml—to examine their effects on the B cell response. 10^5/well PBMC were plated in 96-well microtiter plates and assayed in duplicate with the peptide. Cell cultures were incubated at 37° C. for 3 days in a 5% CO2 incubator and were thereafter pulsed with 1 microCi/well ^3H-thymidine for additional 12 hours of culture. At the end of incubation time, the plates were harvested and the cells counted by liquid scintillation for the incorporation of ^3H-thymidine as a measure of B cell proliferation.

[6] = system: HUVEC; experiment: Endothelial tube formation assay; assay type: cell-based, human; settings: peptide 10 micrograms per ml, 20 hours
Procedure: The endothelial tube formation assay is based on the ability of endothelial cells to form three-dimensional capillary-like tubular structures when cultured on a gel of basement membrane extract. The endothelial tube formation assay represents a powerful model for studying inhibition and induction of angiogenesis. Pre-labeled HUVEC with Calcein AM were seeded in a 96-well culture plate coated with extracellular metrix (Chemicon international Cat. ECM625) and treated with test peptide—10 micrograms per ml—in full growth medium. […] control was vehicle only. The endothelial cells were allowed to form tubes for 20 hours and were then examined under an inverted fluorescent microscope. Duplicate wells for each treatment were photographed and quantitatively analyzed for an average tubule length using image analysis software ImageProPlus. Raw data were expressed as average tubule lengths in pixels ±standard deviation. Statistic p values were computed using the Student's t-test.

[7] = system: A549 cells; experiment: Apoptosis induction assay (Annexin-5); assay type: cell-based, human; settings: apoptosis induction in A549 cells, 24 hours exposure
Excerpt: Human A549 cells (carcinomic human alveolar basal epithelial cells) were utilized in the experiments employing the Annexin-5 apoptosis assay. Annexin-5 is a member of a highly conserved protein family that binds acidic phospholipids in a calcium-dependent manner. […] Phosphatidylserine is translocated from the inner side of the plasma membrane to the outer layer when cells undergo death by apoptosis or cell necrosis and serves as a signal by which cell destined for death are recognized by phagocytes. Test peptide—[…]—were exposed for 24 hours to the A549 cells before they were analyzed for signs of apoptosis.

[8] = system: spleen cells; experiment: Th1/Th2 cytokine profiling assay (Ovalbumin restimulated spleen cells, CBA kit); assay type: cell-based, Balb/c mice; settings: peptide 10 micrograms per ml; Ovalbumin 10 micrograms/ml restimulation; 72 hours
Excerpt: The Balb/c mice (originated in 1923, it is a popular strain and is used in many different research disciplines. Also classified as an inbred from the production of 20 or more successive brother-sister matings, the Balb/c mouse is albino and small in size) were immunized on Days 1, 15, and 29 with Ovalbumin (Ovalbumin is the main protein found in egg white, commonly used to stimulate an immunological reaction in test animals) in PBS (5 micrograms/injection). On day 50, spleens of the mice were harvested (3 weeks after last boost with Ovalbumin). Cells were cultured (2×10^5/well in triplicate) and incubated with culture medium or test peptide—10 micrograms per ml—for 30 min. Thereafter, additional Ovalbumin was added to the cells at 10 micrograms/ml for in vitro restimulation of the cells. 72 hours later, cell supernatants were harvested and assayed using the Becton Dickinson Mouse Th1/Th2 Cytokine CBA Kit. This kit can be used to measure Interleukin-2 (IL-2), Interleukin-4 (IL-4), Interleukin-5 (IL-5), Interferon-γ (IFN-γ), and Tumor Necrosis Factor-α (TNF-α) protein levels in a single sample. The kit performance has been optimized for analysis of physiologically relevant concentrations ([…] levels) of specific cytokine proteins in tissue culture supernatants and serum samples.

For `CC(C)C[C@H](NC(=O)[C@H](CC(C)C)NC(=O)[C@@H](Cc1c[nH]c2ccccc12)NC(=O)[C@H](Cc1ccccc1)NC(=O)[C@@H](Cc1c[nH]c2ccccc12)NC(=O)[C@H](CCC(N)=O)NC(=O)[C@H](CCC(N)=O)NC(=O)[C@@H]1CCCN1C(=O)[C@H](CCCCN)NC(=O)[C@@H]1CCCN1C(=O)[C@@H](CCCNC(=N)N)NC(=O)[C@@H]1CCCN1C(=O)CNC(=O)[C@H](CC(C)C)NC(=O)[C@H](CC(C)C)NC(=O)[C@H](Cc1ccc(O)cc1)NC(=O)CNC(=O)[C@H](C)NC(=O)[C@H](CO)NC(=O)[C@H](CC(N)=O)NC(=O)[C@H](CC(C)C)NC(=O)[C@@H](NC(=O)[C@H](Cc1c[nH]c2ccccc12)NC(=O)CN)[C@@H](C)O)C(N)=O` [Spantide-I, Gly-Trp-Thr-Leu-Asn-Ser-Ala-Gly-Tyr-Leu-Leu-Gly-Pro-D-Arg-Pro-Lys-Pro-Gln-Gln-D-Trp-Phe-D-Trp-Leu-Leu-NH2] (H-GWTLNSAGYLLGP[dR]PKPQQ[dW]F[dW]LL-NH2), the “% of control phagocytosis” value [1] was 102.9%, the “% prevention of ceramide induced apoptosis” value [2] was −20.5% and the viability at 144 h, 10 micrograms per ml [3] was 100%. The “% of LPS induction” value [4] was 101.4%, the “% of SAC/IL2 induced control” value [5] was 106.6% and the “% inhibition of tube formation” value [6] was 1%. The “% of induction” value [7] was 1.4%, the “IFNγ spleen cells; TH1 response (% of control)” value [8] was 43.1 % of control and the “IL-2 spleen cells (% of control)” value [8] was 25.9 % of control. The “IL-4 spleen cells; TH2 response (% of control)” value [8] was 40.5 % of control, the “IL-5 spleen cells; TH2 response (% of control)” value [8] was 64.5 % of control and the “TNF-a spleen cells; TH1 response (% of control)” value [8] was 61.9 % of control.
